{
  "source": "PubChem BioAssay AID2060611",
  "about": "(Molecular Pharmacology Branch, DTP, NCI, 2025);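 further: spheroids exposed to agents for seven days before readout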;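 on viability, T/C: 100% = DMSO vehicle control viability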",
  "tested_on": "628569-122-R-J1-PDC complex spheroid viability",
  "experiment": "Anticancer human tumor 628569-122-R-J1-PDC patient-derived head and neck squamous carcinoma cell line growth inhibition [CLK]",
  "conditions": "for IC50: curve of first compound; for viability, T/C: stronger effect = lower value",
  "summary_of_the_method": "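Patient-derived tumor cells grown as complex spheroids with HUVEC endothelial cells and mesenchymal stem cells, treated with drug combinations. Concentrations descend in half-log steps from near clinical Cmax, or from 10 microM if Cmax unknown.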",
  "data": [
    {"smiles": "O=c1[nH]cc(F)c(=O)[nH]1", "note": "+ CN1CCN(c2cc(C(=O)Nc3cc4cc(-c5cnn(C)c5)ccc4cn3)ccn2)CC1", "values": [
      {"measurement": "IC50", "setting": "second compound 0.0316 µM", "result": "> 10000", "unit": "nM"},
      {"measurement": "IC50", "setting": "second compound 0.1 µM", "result": "> 10000", "unit": "nM"},
      {"measurement": "IC50", "setting": "second compound 0.316 µM", "result": "< 31.6", "unit": "nM"},
      {"measurement": "IC50", "setting": "second compound 1 µM", "result": "< 31.6", "unit": "nM"},
      {"measurement": "IC50", "setting": "second compound 3.16 µM", "result": "< 31.6", "unit": "nM"},
      {"measurement": "IC50", "setting": "second compound 10 µM", "result": "< 31.6", "unit": "nM"},
      {"measurement": "viability, T/C", "setting": "second compound 0.0316 µM, first compound 0.0316 µM", "result": 84.2, "unit": "%"},
      {"measurement": "viability, T/C", "setting": "second compound 0.0316 µM, first compound 0.1 µM", "result": 97.8, "unit": "%"},
      {"measurement": "viability, T/C", "setting": "second compound 0.0316 µM, first compound 0.316 µM", "result": 93.7, "unit": "%"},
      {"measurement": "viability, T/C", "setting": "second compound 0.0316 µM, first compound 1 µM", "result": 102, "unit": "%"},
      {"measurement": "viability, T/C", "setting": "second compound 0.0316 µM, first compound 3.16 µM", "result": 88.8, "unit": "%"},
      {"measurement": "viability, T/C", "setting": "second compound 0.0316 µM, first compound 10 µM", "result": 69.3, "unit": "%"},
      {"measurement": "viability, T/C", "setting": "second compound 0.1 µM, first compound 0.0316 µM", "result": 64.1, "unit": "%"},
      {"measurement": "viability, T/C", "setting": "second compound 0.1 µM, first compound 0.1 µM", "result": 69.9, "unit": "%"},
      {"measurement": "viability, T/C", "setting": "second compound 0.1 µM, first compound 0.316 µM", "result": 70.5, "unit": "%"},
      {"measurement": "viability, T/C", "setting": "second compound 0.1 µM, first compound 1 µM", "result": 71.6, "unit": "%"},
      {"measurement": "viability, T/C", "setting": "second compound 0.1 µM, first compound 3.16 µM", "result": 64.8, "unit": "%"},
      {"measurement": "viability, T/C", "setting": "second compound 0.1 µM, first compound 10 µM", "result": 54.7, "unit": "%"},
      {"measurement": "viability, T/C", "setting": "second compound 0.316 µM, first compound 0.0316 µM", "result": 35.7, "unit": "%"},
      {"measurement": "viability, T/C", "setting": "second compound 0.316 µM, first compound 0.1 µM", "result": 30.7, "unit": "%"},
      {"measurement": "viability, T/C", "setting": "second compound 0.316 µM, first compound 0.316 µM", "result": 37.5, "unit": "%"},
      {"measurement": "viability, T/C", "setting": "second compound 0.316 µM, first compound 1 µM", "result": 44.7, "unit": "%"},
      {"measurement": "viability, T/C", "setting": "second compound 0.316 µM, first compound 3.16 µM", "result": 38.3, "unit": "%"},
      {"measurement": "viability, T/C", "setting": "second compound 0.316 µM, first compound 10 µM", "result": 29.8, "unit": "%"},
      {"measurement": "viability, T/C", "setting": "second compound 1 µM, first compound 0.0316 µM", "result": 12.8, "unit": "%"},
      {"measurement": "viability, T/C", "setting": "second compound 1 µM, first compound 0.1 µM", "result": 6.16, "unit": "%"},
      {"measurement": "viability, T/C", "setting": "second compound 1 µM, first compound 0.316 µM", "result": 6.71, "unit": "%"},
      {"measurement": "viability, T/C", "setting": "second compound 1 µM, first compound 1 µM", "result": 8.95, "unit": "%"},
      {"measurement": "viability, T/C", "setting": "second compound 1 µM, first compound 3.16 µM", "result": 7.13, "unit": "%"},
      {"measurement": "viability, T/C", "setting": "second compound 1 µM, first compound 10 µM", "result": 5.19, "unit": "%"},
      {"measurement": "viability, T/C", "setting": "second compound 3.16 µM, first compound 0.0316 µM", "result": 9.61, "unit": "%"},
      {"measurement": "viability, T/C", "setting": "second compound 3.16 µM, first compound 0.1 µM", "result": 7.33, "unit": "%"},
      {"measurement": "viability, T/C", "setting": "second compound 3.16 µM, first compound 0.316 µM", "result": 9.99, "unit": "%"},
      {"measurement": "viability, T/C", "setting": "second compound 3.16 µM, first compound 1 µM", "result": 8.76, "unit": "%"},
      {"measurement": "viability, T/C", "setting": "second compound 3.16 µM, first compound 3.16 µM", "result": 12, "unit": "%"},
      {"measurement": "viability, T/C", "setting": "second compound 3.16 µM, first compound 10 µM", "result": 4.06, "unit": "%"},
      {"measurement": "viability, T/C", "setting": "second compound 10 µM, first compound 0.0316 µM", "result": 11, "unit": "%"},
      {"measurement": "viability, T/C", "setting": "second compound 10 µM, first compound 0.1 µM", "result": 2.54, "unit": "%"},
      {"measurement": "viability, T/C", "setting": "second compound 10 µM, first compound 0.316 µM", "result": 4.42, "unit": "%"},
      {"measurement": "viability, T/C", "setting": "second compound 10 µM, first compound 1 µM", "result": 2.63, "unit": "%"},
      {"measurement": "viability, T/C", "setting": "second compound 10 µM, first compound 3.16 µM", "result": 2.63, "unit": "%"},
      {"measurement": "viability, T/C", "setting": "second compound 10 µM, first compound 10 µM", "result": 3.59, "unit": "%"}
    ]}
  ]
}
